Tests used:
adjuvant arthritis model = test: Adjuvant Arthritis Test; format: in vivo, 7 week old female Lewis rats; set-up: concentration or dose not given beside the values; conditions: subcutaneous daily days 8-21; for Bone Destruction Inhibition Rate with respect to control group, Day 22: Day 22, soft X-ray score of left and right hind limbs; for Swelling Inhibition Rate with respect to Control Group, Day 21, Left / Swelling Inhibition Rate with respect to Control Group, Left (day 14 per footnote) / Swelling Inhibition Rate with respect to Control Group, Day 16, Left: left (adjuvant-injected) hind limb; for Swelling Inhibition Rate with respect to Control Group, Left (day 14 per footnote) / Swelling Inhibition Rate with respect to Control Group, Right (day 14 per footnote): day 14 (column head Day 16); for Swelling Inhibition Rate with respect to Control Group, Day 21, Right / Swelling Inhibition Rate with respect to Control Group, Right (day 14 per footnote) / Swelling Inhibition Rate with respect to Control Group, Day 16, Right: right hind limb
Protocol: Multiple arthritis resembling human chronic articular rheumatism occurs when tubercule bacillus adjuvant is injected into rats. The antiinflammatory, antirheumatic and bone metabolism improving action of compounds of the present invention were investigated according to the following procedure using this adjuvant arthritis model.
0.1 mg of dried non-viable Mycobacterium butyricum cells were suspended in 0.1 ml of liquid paraffin followed by injection into the skin of the left hind limb of 7 week old female Lewis rats. The compounds obtained in the Examples were dissolved in sterilized distilled water and administered subcutaneously every day for two weeks from the 8th to 21st days after injection of adjuvant. During that time, the volumes of the right and left hind limbs were measured and the swelling rate was calculated according to the following formula: [formula]
Moreover, the swelling inhibition rates were also determined according to the following formula, and those values are shown in Table 1. [formula]
Soft X-ray radiographs were taken of the left and right hind limbs of the animals following sacrifice on day 22. The degree of bone destruction at five locations in the left and right hind limbs was evaluated based on the soft X-ray radiographs scoring those results among 5 ranks. Moreover, the bone destruction inhibition rate was calculated using the following formula, and those values are shown in Table 1. [formula]
Those results that were significant at a level of significance of P<0.001 with respect to a control group administered only sterilized distilled water according to the Student's t-test and Chukey's multiple comparison method were indicated with three asterisks (***), those results that were significant at a level of significance of P<0.01 were indicated with two asterisks (**), and those significant at a level of significance of P<0.05 were indicated with one asterisk (*).
The swelling inhibition rates for Example 7 and Example 33 are the values for day 14 and day 21.

[1] = tested on: active oxygen production by human neutrophils; test: Release of active oxygen from fMLP-stimulated human neutrophils (CLA luminescence); format: cell-based; conditions: Neutrophil, 10 μM compound, fMLP stimulation, read-out: Active Oxygen Production Inhibition Rate
Text: Neutrophils are known to function in the body defense reactions by phagocytosis of foreign bodies to remove them and production of active oxygen and digestive enzymes. However, the active oxygen and digestive enzymes produced by neutrophils also damage normal tissue during chronic inflammations and so forth. Moreover, they are also considered to exacerbate the inflammation. The action of compounds of the present invention was therefore measured with respect to the release of active oxygen from human neutrophils.
50 ml of human blood were drawn from a vein using 3.8% sodium citrate as anticoagulant. Equal volumes of this blood and a physiological saline solution containing 2% dextran were mixed and allowed to stand undisturbed for 30 minutes at 37° C. after shaking several times. The upper layer was separated and layered onto an equal volume of Ficoll-Paque solution. After centrifuging for 30 minutes at 1400 rpm and 20° C., the supernatant was removed and the cells were resuspended with Hanks buffer. […] The maximum amount of light emitted was then determined by a luminometer taking advantage of the phenomenon in which this excited carbonyl form emits light at 380 nm in the process of transition to the ground state. The active oxygen production inhibition rate was then calculated using the formula indicated below. […]

[2] = tested on: osteoclasts (mouse bone cells), resorption pit formation; test: Bone resorption pit formation by mouse bone cells (osteoclasts) on ivory, active type-vitamin D3 stimulation; format: cell-based, ICR mice; conditions: 10 nM active type-vitamin D3, 4 days
Text: The balance between bone formation and bone destruction is disturbed during osteoporosis, with bone destruction considered to be accelerated. Bone destruction is believed to occur due to an increase in the activation and number of osteoclasts. Experiments have been conducted wherein bone resorption was induced with active type-vitanium D3 stimulation using mouse bone cells dispersed on ivory for the experimental model. The bone resorption inhibitory action of compounds of the present invention was measured using this model.
After isolating the femur and tibia from 10-15 day old ICR mice, the bone specimens were prepared into thin sections in α-MEM medium containing 5% fetal bovine serum to prepare an bone cells suspension containing marrow cells and bone matrix. Large fragments of bone were removed with nylon mesh. Viable total cells were counted with trypan blue exclusion test while osteoclasts were stained with tartaric acid-resistantacid phosphatase stain to prepare a cell suspension containing osteoclasts in a proportion of roughly 0.05-0.1%. The ivory was cut into thin sections having a thickness of 150 μm using a low-speed rotary diamond cutter. The thin sections were then punched to a size that matched the size of the wells of a 96 well plate. These ivory fragments were placed in a 96 well plate followed by addition of the cell suspension prepared above so that each well contained 500 osteoclasts. 10 nM active type-vitamin D3 was added as stimulant simultaneous to addition of the drugs of the present invention at concentrations of 10 μM and 100 μM. After culturing the cells for 4 days at 37° C. in an environment of 10% CO2, the resorption pits that formed on the ivory slices were stained with hematoxylin and counted by observing microscopically. The resorption pit formation inhibition rate was then calculated using the formula indicated below. [formula]
The results were statistically processed using the Student's t-test, and those results that were significant at a level of significance of P<0.05 with respect to an active type-vatanium D3 stimulation control group were indicated with one asterisk (*), while those results that were significant at a level of significance of P<0.01 were indicated with two asterisks (**).

[3] = tested on: IL-1 production by J774-1 mouse macrophage cells; test: Action on IL-1 Production by Strain J774-1 Mouse Macrophage Cells (LPS stimulated); format: cell-based; conditions: 100 μM compound, LPS 1 μg/ml, 24 hours, read-out: IL-1 Production Inhibition Rate with respect to Control Group
Protocol: It is also known that these cells produce IL-1 when stimulated with LPS. The inhibitory action on IL-1 production of compounds of the present invention was measured according to the following procedure using this cell line.
The J774-1 cells were cultured in RPMI-1640 medium containing 10% fetal bovine serum and 50 μM 2-mercaptoethanol followed by adjusting the number of cells to 2×10^5 cells/ml. 1 ml aliquots of this cell suspension were then placed in the wells of a 24 well plate and cultured for 30 minutes. Following culturing, LPS was added to a final concentration of 1 μg/ml. At the same time, compounds obtained in Examples were dissolved in sterilized distilled water and added at a concentration of 100 μM. […]
The samples obtained above were serially diluted by a factor of 2 in a 96 well multiplate at a capacity of 50 μl. […] The thymus cells were then cultured for 72 hours and IL-1 activity was determined from the growth rate of the cells. […] Using the absorbance of the pigment produced by this reduction at 570 nm as the index, the dilution factor of the sample when growth of thymus cells is induced by 50% was calculated in terms of the number of units of that sample by taking the case of induction of maximum growth of T cells by human gene recombinant IL-1 to be 100% growth, and growth in the case of not adding IL-1 to be 0%. […]

SMILES | Bone Destruction Inhibition Rate with respect to control group, Day 22 (adjuvant arthritis model) | Swelling Inhibition Rate with respect to Control Group, Day 21, Left (adjuvant arthritis model) | Swelling Inhibition Rate with respect to Control Group, Left (day 14 per footnote) (adjuvant arthritis model) | Swelling Inhibition Rate with respect to Control Group, Day 21, Right (adjuvant arthritis model) | Swelling Inhibition Rate with respect to Control Group, Right (day 14 per footnote) (adjuvant arthritis model) | inhibition at 10 µM [1] | resorption pit formation Inhibition Rate with respect to Control Group ([2]; 10 μM compound) | resorption pit formation Inhibition Rate with respect to Control Group ([2]; 100 μM compound) | Swelling Inhibition Rate with respect to Control Group, Day 16, Left (adjuvant arthritis model) | Swelling Inhibition Rate with respect to Control Group, Day 16, Right (adjuvant arthritis model) | inhibition at 100 µM [3]
CSc1cccc(SC(P(=O)(O)O)P(=O)(O)O)c1 [Example 7, (3-methylthiophenyl)thiomethanediphosphonic Acid] | 43.7% | 72.7% | 48.6% | 24.2% | 15.0% | – | – | – | – | – | –
CSc1ccccc1SC(P(=O)(O)O)P(=O)(O)O [Example 9, (2-methylthiophenyl)thiomethanediphosphonic Acid] | – | – | – | – | – | 46.3 ± 0.81% | 35.8 ± 27.0% | 77.8 ± 3.59% | – | – | –
CSc1ccc(C=C(P(=O)(O)O)P(=O)(O)O)cc1 [Example 28, 2-(4-methylthiophenyl)ethynilidene-1,1-diphosphonic acid] | – | – | – | – | – | – | -0.34 ± 10.1% | 67.8 ± 3.98% | – | – | –
CSc1ccc(CC(P(=O)(O)O)P(=O)(O)O)cc1 [Example 30, 2-(4-methylthiophenyl)ethane-1,1-diphosphonic acid] | – | – | – | – | – | – | 35.6 ± 11.3% | 87.0 ± 4.34% | – | – | –
CSc1ccc(SCCCC(O)(P(=O)(O)O)P(=O)(O)O)cc1 [Example 33, disodium 4-(4-methylthiophenyl)thio-1-hydroxy-butylidene-1,1-diphosphonate] | 77.1% | 138.0% | 115.0% | 66.1% | 63.5% | – | – | – | – | – | –
O=P(O)(O)C(Sc1ccc(Sc2ccccc2)cc1)P(=O)(O)O [Example 15, (4-phenylthiophenyl)thiomethanediphosphonic Acid] | 33.7% | 73.8% | – | 33.7% | – | – | 30.5 ± 22.9% | 74.1 ± 4.38% | 75.0% | 28.1% | –
CC(C)Sc1ccc(SC(P(=O)(O)O)P(=O)(O)O)cc1 [Example 13, (4-isopropylthiophenyl)thiomethanediphosphonic Acid] | 62.5% | 91.8% | – | 28.7% | – | – | 54.6 ± 10.4% | 92.5 ± 0.61% | 76.9% | 16.8% | 38.6%
